Reference: patent publication US10016414B2, “Modulation of ubiquitination of synaptic proteins for the treatment of neurodegenerative and psychiatric disorders” (UNIVERSITY OF MASSACHUSETTS, priority 2010, dated 2018)

What was measured:
PSD-95 protein levels = PSD-95 protein levels in acute forebrain slices (immunoblot, normalized to actin); assay type: cell-based, mouse; settings: roscovitine 10 μM, 45 min; control 100%±15.8%; n=3; p>0.5
Procedure: PSD-95 immunoreactivity was normalized to that of actin and expressed as a percentage of DMSO control.
Brains of adult p35 knockout mice and control littermates were gifts of Dr. Li-Huei Tsai (MIT). Brain lysates were prepared according to Zhang et al., (2008). Briefly, brains (without cerebellum) were first homogenized and lysed in 1% deoxycholate (DOC) lysis buffer (150 mM NaCl, 1% DOC, 50 mM Tris, pH 8.8), to which an equal volume of modified radioimmunoprecipitation assay (RIPA) buffer was added (150 mM NaCl, 1 mM ethylenediaminetetraacetic acid (EDTA), 1% Triton X-100, 0.1% SDS, 50 mM Tris/HCl pH 7.4) (Kalia et al., 2006). […] Protein concentrations of the lysates were determined by Detergent Compatible Protein Assay (Bio-Rad) and lysates (inputs) were analyzed by western blot to determine whether similar amounts of proteins were used in the experiments. […] Western blots were visualized by enhanced chemiluminescence (ECL, Amersham) and immunoreactive bands were digitally scanned and quantified with ImageJ software (NIH). Values were expressed as mean±S.E.M. and statistically compared using Student's t-test.
Acute forebrain slices were prepared as previously described (Patel et al., 2003; Zhang et al., 2008). […] Values were expressed as mean±S.E.M. and statistically compared using analysis of variance (ANOVA). […]

PSD-95 ubiquitination = PSD-95 ubiquitination in acute forebrain slices (PSD-95 immunoprecipitation, ubiquitin/FK1/FK2 immunoblot); assay type: cell-based, mouse; settings: roscovitine 10 μM, 45 min, acute mouse forebrain slices
[1] = system: colocalization of β-adaptin with PSD-95; assay: Colocalization of β-adaptin with PSD-95 puncta in cultured hippocampal neurons; assay type: cell-based, rat; settings: roscovitine 10 μM, 45 min; control 100%±15.6%; n=5; mean±SEM
Procedure: C. […] Representative confocal images from each condition are shown; β-adaptin and PSD-95 (scale bars, 10 μm). […] The number of costained puncta, as a percentage of total number of PSD-95 puncta, is expressed as a percentage of the number for DMSO control.
(§1) Dissociated hippocampal cultures were prepared from E17-E18 rat brains as described previously (Zhang et al., 2008). Hippocampal neurons were plated on coverslips coated with poly-D-lysine and laminin at a density of 6600/cm2 and grown in Neurobasal medium supplemented with B27 and GlutaMax (Invitrogen) for 17-21 days in vitro (DIV). […] Images from each experiment were thresholded using identical values and analyzed by MetaMorph software. The colocalization was expressed as mean±S.E.M. and statistically compared using Student's t-test.
To assess whether PSD-95 monoubiquitination correlates with increased PSD-95 interaction with AP-2 in vivo, p35 knockout mice were analyzed, which have increased PSD-95 monoubiquitination. PSD-95 immunoprecipitated from brain lysates of p35 knockout and wildtype littermates was analyzed by β-adaptin immunoblot (FIG. 4B).

[2] = system: colocalization of Mdm2 with PSD-95; assay: Colocalization of Mdm2 with PSD-95 puncta in cultured hippocampal neurons (immunocytochemistry); assay type: cell-based, rat; settings: roscovitine 10 μM, 45 min; control 100%±24.8%; n=4; mean±SEM
Procedure: Representative confocal images from each condition are shown; Mdm2 (green) and PSD-95 (red) (scale bars, 10 μm). […] The number of costained puncta, as a percentage of total PSD-95 puncta, are expressed as a percentage of the number for DMSO controls.
as §1
Mdm2 has been identified as the ubiquitin ligase for PSD-95 in ubiquitination assays and in transfected Mdm2 knockout mouse embryonic fibroblasts (Colledge et al., 2003). […] To investigate whether Cdk5 regulates the interaction between Mdm2 and PSD-95, PSD-95 immunoprecipitated from brain lysates was analyzed in p35 knockout mice and wild-type littermates by immunoblotting with an Mdm2 antibody (FIG. 2A). […]

## CC[C@H](CO)Nc1nc(NCc2ccccc2)c2ncn(C(C)C)c2n1 [roscovitine]
PSD-95 protein levels
  PSD-95 protein levels (normalized to actin, percentage of DMSO control): 103.7%±18.7%
PSD-95 ubiquitination
  increase in PSD-95 ubiquitination: more than 2 fold
  kind of PSD-95 ubiquitination (FK2 immunoreactive, FK1 not): increases PSD-95 monoubiquitination on multiple lysines
PSD-95 ubiquitination; control 100%±54.5%, n=4, mean±SEM
  ubiquitination of PSD-95 (ubiquitin immunoreactivity normalized to immunoprecipitated PSD-95, percentage of DMSO control): 274.6%±71.6%
[1]
  puncta positive for both PSD-95 and β-adaptin (percentage of DMSO control): 192.5%±19%
[2]
  puncta positive for both PSD-95 and Mdm2 (percentage of DMSO control): 149%±27.4%
